Assay results taken from ChEMBL document CHEMBL4840351 (J Med Chem, 2021).
The source made the active and inactive calls. No cut-off for these calls is given here.

What was measured:
[1] = Cmax in Sprague-Dawley rat at 5 mg/kg, po measured upto 24 hrs by LC/MS/MS analysis; assay type: ADME, organism-based; set-up: route oral, dose 5 mg/kg, time <=24; conditions: in vivo
[2] = biological target: T1, Tyrosine-protein kinase Blk (Homo sapiens, UniProt P51451); assay: Inhibition of BLK (unknown origin)
Target sequence in this assay (P51451 whole entry): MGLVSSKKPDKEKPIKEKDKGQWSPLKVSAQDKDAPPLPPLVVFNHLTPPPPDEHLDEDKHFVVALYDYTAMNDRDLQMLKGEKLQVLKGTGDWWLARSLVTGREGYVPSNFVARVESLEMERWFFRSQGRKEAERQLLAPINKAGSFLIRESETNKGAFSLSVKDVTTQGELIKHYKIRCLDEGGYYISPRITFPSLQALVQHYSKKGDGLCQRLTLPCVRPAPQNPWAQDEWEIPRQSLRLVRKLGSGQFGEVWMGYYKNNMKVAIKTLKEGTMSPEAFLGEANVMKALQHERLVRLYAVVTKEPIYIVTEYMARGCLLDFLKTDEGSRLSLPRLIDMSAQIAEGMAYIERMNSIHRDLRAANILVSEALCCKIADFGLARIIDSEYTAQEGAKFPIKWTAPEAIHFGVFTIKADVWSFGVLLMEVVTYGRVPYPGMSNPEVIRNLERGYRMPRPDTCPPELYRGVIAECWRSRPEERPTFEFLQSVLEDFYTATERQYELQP

[3] = AUC(0 to 8 hrs) in CB-17 SCID mouse xenografted with human TMD8 cells at 7.5 mg/kg, po bid administered for 21 days; assay type: ADME, organism-based; set-up: route oral, time 21 day, dose 7.5 mg/kg; conditions: in vivo
Cytochrome P450 3A4 = Cytochrome P450 3A4 (Homo sapiens, UniProt P08684); assay: Inhibition of CYP3A4M in human liver microsomes using midazolam as substrate incubated for 10 mins in presence of NADPH by LC-MS/MS analysis; assay type: ADME
TMD8 [4] = assay: Induction of apoptosis in human TMD8 cells at 300 nM incubated for 72 hrs by Annexin V-FITC/PI staining based flow cytometric analysis (reference value: 13.4 %); assay type: functional
[5] = Receptor occupancy at BTK in PBMC of ICR mouse at 15 mg/kg, po after 1 hr by ELISA; assay type: functional
[6] = Toxicity in SFP CD-1 mouse assessed as change in animal color at 10 to 1280 mg/kg, po administered for 7 days; assay type: organism-based; conditions: in vivo, 168 h, dose 10-1280 mg/kg, time 7 day
[7] = Half life in Sprague-Dawley rat at 5 mg/kg, po measured upto 24 hrs by LC/MS/MS analysis; assay type: ADME, organism-based; conditions: in vivo
[8] = Oral bioavailability in Sprague-Dawley rat at 5 mg/kg measured upto 24 hrs by LC/MS/MS analysis; assay type: ADME, organism-based; conditions: in vivo
[9] = Receptor occupancy at BTK in spleen of ICR mouse at 15 mg/kg, po after 1 hr by ELISA; assay type: functional
[10] = biological target: Tyrosine-protein kinase BTK (Homo sapiens, UniProt Q06187); assay: Inhibition of BTK in human TMD8 cells assessed as reduction in PLCgamma2 phosphorylation at Tyr 1217 residue at 0 to 1000 nM after 4 hrs by Western blot analysis; assay type: cell-based; conditions: dose 0-1000 nM
[11] = Receptor occupancy at BTK in PBMC of ICR mouse at 15 mg/kg, po after 24 hrs by ELISA; assay type: functional
[12] = Toxicity in SFP CD-1 mouse assessed as change in temperature at 10 to 1280 mg/kg, po administered for 7 days; assay type: organism-based; conditions: in vivo, 168 h, dose 10-1280 mg/kg, time 7 day
Ramos = assay: Antiproliferative activity against human Ramos cells assessed as reduction in cell viability incubated for 72 hrs by celltiter-glo assay
[13] = biological target: T1, Tyrosine-protein kinase Blk; assay: Inhibition of BLK (unknown origin) at 1 uM relative to control
Target sequence in this assay (P51451 2-505 limits assumed): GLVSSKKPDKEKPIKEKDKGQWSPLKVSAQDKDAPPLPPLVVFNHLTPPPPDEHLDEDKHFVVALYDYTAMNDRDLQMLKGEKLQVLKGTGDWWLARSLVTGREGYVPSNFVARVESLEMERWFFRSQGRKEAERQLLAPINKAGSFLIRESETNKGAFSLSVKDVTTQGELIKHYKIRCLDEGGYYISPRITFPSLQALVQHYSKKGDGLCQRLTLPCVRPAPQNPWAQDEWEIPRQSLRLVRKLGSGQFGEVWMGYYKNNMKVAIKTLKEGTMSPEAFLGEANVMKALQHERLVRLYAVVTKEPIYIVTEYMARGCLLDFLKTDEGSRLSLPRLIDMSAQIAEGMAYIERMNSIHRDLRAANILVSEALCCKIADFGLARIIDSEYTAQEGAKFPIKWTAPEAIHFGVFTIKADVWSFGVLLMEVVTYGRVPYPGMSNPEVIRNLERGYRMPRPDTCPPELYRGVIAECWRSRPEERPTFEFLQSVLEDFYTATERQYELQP

Cytochrome P450 1A2 = Cytochrome P450 1A2 (Homo sapiens, UniProt P05177); assay: Inhibition of CYP1A2 in human liver microsomes using phenacetin as substrate incubated for 10 mins in presence of NADPH by LC-MS/MS analysis; assay type: ADME
[14] = Cmax in ICR mouse at 15 mg/kg, po after 24 hrs; assay type: ADME, organism-based; set-up: route oral, time 24 hrs, dose 15 mg/kg; conditions: in vivo
[15] = biological target: Proto-oncogene tyrosine-protein kinase Src (Homo sapiens, UniProt P12931); assay: Inhibition of SRC (unknown origin)
TMD8 [16] = assay: Antiproliferative activity against human TMD8 cells assessed as reduction in cell viability incubated for 72 hrs by celltiter-glo assay; conditions: TMD8, 72 h
TMD8 [17] = assay: Induction of cell cycle arrest in human TMD8 cells assessed as accumulation of cells at G2 phase at 3 nM incubated for 48 hrs by PI staining based flow cytometric analysis (reference value: 4.92 %); assay type: functional
TMD8 [18] = assay: Induction of apoptosis in human TMD8 cells at 3000 nM incubated for 72 hrs by Annexin V-FITC/PI staining based flow cytometric analysis (reference value: 13.4 %); assay type: functional
[19] = Toxicity in SFP CD-1 mouse assessed as change in behavior at 10 to 1280 mg/kg, po administered for 7 days; assay type: organism-based; conditions: in vivo, 168 h, dose 10-1280 mg/kg, time 7 day
Raji = assay: Antiproliferative activity against human Raji cells assessed as reduction in cell viability incubated for 72 hrs by celltiter-glo assay
[20] = Toxicity in SFP CD-1 mouse assessed as mortality at 10 to 1280 mg/kg, po administered for 7 days; assay type: organism-based; conditions: in vivo, 168 h, dose 10-1280 mg/kg, time 7 day
NAMALVA = assay: Antiproliferative activity against human NAMALWA cells assessed as reduction in cell viability incubated for 72 hrs by celltiter-glo assay
[21] = Receptor occupancy at BTK in spleen of ICR mouse at 15 mg/kg, po after 24 hrs by ELISA; assay type: functional
[22] = Toxicity in CB-17 SCID mouse xenografted with human TMD8 cells assessed as change in body weight at 3.75 to 15 mg/kg, po bid administered for 21 days; assay type: organism-based; conditions: in vivo, 504 h, dose 3.75-15 mg/kg, time 21 day
[23] = Drug concentration in ICR mouse plasma at 15 mg/kg, po after 2 hrs; assay type: ADME, organism-based
[24] = biological target: Tyrosine-protein kinase Fyn (Homo sapiens, UniProt P06241); assay: Inhibition of FYN (unknown origin)
TMD8 [25] = assay: Induction of cell cycle arrest in human TMD8 cells assessed as accumulation of cells at G1 phase at 300 nM incubated for 48 hrs by PI staining based flow cytometric analysis (reference value: 57.66 %); assay type: functional
TMD8 [26] = assay: Induction of cell cycle arrest in human TMD8 cells assessed as accumulation of cells at G1 phase at 30 nM incubated for 48 hrs by PI staining based flow cytometric analysis (reference value: 57.66 %); assay type: functional
SU-DHL-2 = assay: Antiproliferative activity against human SUDHL2 cells assessed as reduction in cell viability incubated for 72 hrs by celltiter-glo assay; conditions: SU-DHL-2, 72 h
Pfeiffer = assay: Antiproliferative activity against human Pfeiffer cells assessed as reduction in cell viability incubated for 72 hrs by celltiter-glo assay
[27] = biological target: Tyrosine-protein kinase Tec (Homo sapiens, UniProt P42680); assay: Inhibition of TEC (unknown origin)
[28] = biological target: Tyrosine-protein kinase Tec (Homo sapiens) (UniProt P42680); assay: Inhibition of TEC (unknown origin) at 1 uM relative to control
TMD8 [29] = assay: Antitumor activity against human TMD8 cells xenografted in CB-17 SCID nude mouse assessed as tumor growth inhibition at 15 mg/kg, po bid administered for 21 days; assay type: functional; conditions: 504 h, time 21 day, read-out: TGI
Cytochrome P450 2D6 = Cytochrome P450 2D6 (Homo sapiens, UniProt P10635); assay: Inhibition of CYP2D6 in human liver microsomes using bufuralol as substrate incubated for 10 mins in presence of NADPH by LC-MS/MS analysis; assay type: ADME
Sequence of Cytochrome P450 2D6 (P10635 whole entry): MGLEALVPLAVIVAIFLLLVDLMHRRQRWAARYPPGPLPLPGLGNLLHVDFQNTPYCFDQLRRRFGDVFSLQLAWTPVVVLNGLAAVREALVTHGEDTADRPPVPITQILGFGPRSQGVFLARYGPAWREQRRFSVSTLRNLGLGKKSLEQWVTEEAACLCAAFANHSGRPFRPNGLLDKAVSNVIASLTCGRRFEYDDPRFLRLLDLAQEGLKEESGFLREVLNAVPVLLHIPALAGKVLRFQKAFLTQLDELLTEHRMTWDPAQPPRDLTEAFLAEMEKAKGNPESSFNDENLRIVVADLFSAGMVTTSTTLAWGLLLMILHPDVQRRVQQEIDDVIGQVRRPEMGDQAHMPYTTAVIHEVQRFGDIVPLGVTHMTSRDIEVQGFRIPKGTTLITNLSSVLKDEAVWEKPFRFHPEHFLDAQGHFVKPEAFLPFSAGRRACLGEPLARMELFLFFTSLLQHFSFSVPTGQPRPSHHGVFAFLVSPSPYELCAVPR

Sequence of Cytochrome P450 1A2 (P05177 whole entry): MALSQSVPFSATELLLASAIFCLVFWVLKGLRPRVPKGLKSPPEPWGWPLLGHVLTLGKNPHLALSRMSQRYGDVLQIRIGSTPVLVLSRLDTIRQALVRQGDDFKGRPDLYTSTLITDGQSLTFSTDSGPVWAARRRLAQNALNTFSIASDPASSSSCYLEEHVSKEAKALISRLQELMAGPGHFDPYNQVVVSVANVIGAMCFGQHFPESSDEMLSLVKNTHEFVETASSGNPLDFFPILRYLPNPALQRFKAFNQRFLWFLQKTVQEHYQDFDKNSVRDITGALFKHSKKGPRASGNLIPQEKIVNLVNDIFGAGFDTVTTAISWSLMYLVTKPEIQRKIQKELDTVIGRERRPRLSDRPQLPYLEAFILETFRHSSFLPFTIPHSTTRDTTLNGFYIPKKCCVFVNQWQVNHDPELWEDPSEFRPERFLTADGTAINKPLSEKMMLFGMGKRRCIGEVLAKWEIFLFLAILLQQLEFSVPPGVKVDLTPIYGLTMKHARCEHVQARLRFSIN
Sequence of Cytochrome P450 3A4 (P08684 whole entry): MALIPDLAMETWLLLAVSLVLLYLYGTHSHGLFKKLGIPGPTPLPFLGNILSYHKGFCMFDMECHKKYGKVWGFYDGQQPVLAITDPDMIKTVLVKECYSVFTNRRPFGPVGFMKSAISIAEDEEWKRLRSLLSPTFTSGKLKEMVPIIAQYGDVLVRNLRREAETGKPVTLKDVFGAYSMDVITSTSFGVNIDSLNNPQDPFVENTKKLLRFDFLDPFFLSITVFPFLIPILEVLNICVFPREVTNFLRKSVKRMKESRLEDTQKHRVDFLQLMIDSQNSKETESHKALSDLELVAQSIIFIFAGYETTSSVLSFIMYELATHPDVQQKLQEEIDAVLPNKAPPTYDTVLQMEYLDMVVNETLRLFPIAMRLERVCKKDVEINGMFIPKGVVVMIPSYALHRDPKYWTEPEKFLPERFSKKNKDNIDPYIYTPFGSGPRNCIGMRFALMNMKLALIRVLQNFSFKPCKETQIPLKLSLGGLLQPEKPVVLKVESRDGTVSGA
Sequence of Tyrosine-protein kinase BTK (Q06187 whole entry): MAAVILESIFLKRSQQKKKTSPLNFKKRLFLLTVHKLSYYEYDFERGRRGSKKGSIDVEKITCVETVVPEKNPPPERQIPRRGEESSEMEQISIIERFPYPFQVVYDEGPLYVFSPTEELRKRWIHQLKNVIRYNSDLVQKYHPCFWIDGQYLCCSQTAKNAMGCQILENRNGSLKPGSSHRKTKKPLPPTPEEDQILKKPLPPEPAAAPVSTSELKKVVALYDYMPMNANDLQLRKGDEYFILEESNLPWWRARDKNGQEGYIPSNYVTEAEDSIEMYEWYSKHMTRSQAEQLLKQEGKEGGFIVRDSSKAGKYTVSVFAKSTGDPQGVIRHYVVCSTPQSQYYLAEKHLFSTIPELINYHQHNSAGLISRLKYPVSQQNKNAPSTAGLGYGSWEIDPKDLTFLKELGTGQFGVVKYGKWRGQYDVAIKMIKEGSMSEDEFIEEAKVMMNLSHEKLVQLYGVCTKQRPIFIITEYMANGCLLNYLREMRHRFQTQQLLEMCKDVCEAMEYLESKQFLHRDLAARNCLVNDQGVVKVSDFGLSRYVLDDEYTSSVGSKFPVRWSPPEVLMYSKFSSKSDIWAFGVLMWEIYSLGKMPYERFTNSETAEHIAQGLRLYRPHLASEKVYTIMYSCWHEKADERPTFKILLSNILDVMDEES
Sequence of Proto-oncogene tyrosine-protein kinase Src (P12931 2-536 limits assumed): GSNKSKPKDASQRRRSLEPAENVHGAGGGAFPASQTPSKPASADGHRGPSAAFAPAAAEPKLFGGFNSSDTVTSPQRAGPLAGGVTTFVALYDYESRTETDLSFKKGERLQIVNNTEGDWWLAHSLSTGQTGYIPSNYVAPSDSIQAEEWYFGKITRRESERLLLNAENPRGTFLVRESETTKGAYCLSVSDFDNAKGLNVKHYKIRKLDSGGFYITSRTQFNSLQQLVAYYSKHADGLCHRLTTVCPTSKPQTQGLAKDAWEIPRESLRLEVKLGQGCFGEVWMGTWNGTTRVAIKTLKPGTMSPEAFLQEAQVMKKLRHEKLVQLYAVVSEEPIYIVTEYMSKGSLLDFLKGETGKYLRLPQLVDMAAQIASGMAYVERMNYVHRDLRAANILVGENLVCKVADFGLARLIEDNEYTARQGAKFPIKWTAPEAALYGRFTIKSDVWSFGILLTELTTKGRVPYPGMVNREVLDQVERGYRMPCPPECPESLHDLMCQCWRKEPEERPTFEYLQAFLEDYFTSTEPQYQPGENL
Sequence of Tyrosine-protein kinase Fyn (P06241 whole entry): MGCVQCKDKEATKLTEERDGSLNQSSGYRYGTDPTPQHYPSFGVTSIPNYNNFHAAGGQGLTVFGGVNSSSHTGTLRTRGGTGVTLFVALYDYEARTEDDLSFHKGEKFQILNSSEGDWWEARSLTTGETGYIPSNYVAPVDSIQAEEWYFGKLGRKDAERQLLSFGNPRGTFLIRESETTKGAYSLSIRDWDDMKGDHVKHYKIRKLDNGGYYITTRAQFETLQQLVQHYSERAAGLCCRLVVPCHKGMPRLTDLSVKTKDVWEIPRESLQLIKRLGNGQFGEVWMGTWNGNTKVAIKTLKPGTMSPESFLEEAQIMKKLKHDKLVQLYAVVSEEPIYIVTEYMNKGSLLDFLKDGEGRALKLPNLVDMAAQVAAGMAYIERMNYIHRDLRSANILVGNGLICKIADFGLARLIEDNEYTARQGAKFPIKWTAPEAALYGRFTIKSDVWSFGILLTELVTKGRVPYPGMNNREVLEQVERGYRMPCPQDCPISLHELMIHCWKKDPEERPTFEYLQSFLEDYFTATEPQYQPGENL
Sequence of Tyrosine-protein kinase Tec (Homo sapiens) (P42680 whole entry): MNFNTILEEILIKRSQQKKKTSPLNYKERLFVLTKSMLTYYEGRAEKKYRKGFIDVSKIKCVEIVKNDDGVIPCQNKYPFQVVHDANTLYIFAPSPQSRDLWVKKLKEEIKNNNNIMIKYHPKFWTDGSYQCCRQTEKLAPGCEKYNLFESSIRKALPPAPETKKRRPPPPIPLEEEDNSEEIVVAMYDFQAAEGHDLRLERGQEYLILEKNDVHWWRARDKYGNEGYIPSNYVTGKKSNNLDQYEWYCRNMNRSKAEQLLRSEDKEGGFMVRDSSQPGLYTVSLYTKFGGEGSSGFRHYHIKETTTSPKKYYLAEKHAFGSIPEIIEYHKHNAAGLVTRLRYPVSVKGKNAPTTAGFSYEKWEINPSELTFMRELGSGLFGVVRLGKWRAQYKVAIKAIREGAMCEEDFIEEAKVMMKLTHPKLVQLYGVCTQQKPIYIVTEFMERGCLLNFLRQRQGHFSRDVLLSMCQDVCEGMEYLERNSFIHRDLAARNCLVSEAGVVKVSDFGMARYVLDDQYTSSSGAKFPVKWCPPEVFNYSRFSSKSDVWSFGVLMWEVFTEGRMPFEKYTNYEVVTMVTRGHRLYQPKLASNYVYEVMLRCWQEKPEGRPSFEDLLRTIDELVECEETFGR
Sequence of Tyrosine-protein kinase Tec (P42680 whole entry): as above

**Q.** With `C=CC(=O)N1CCCC[C@H]1c1nc(-c2ccc(C(=O)Nc3cc(C(F)(F)F)ccn3)cc2)c(C(N)=O)n1N` as the compound, how does the Cmax [1] read?
**A.** 501 ng/mL

**Q.** And the IC50 [2]?
**A.** 170 nM

**Q.** And the AUC at 504 h [3]?
**A.** 1780 ng·h/mL

**Q.** And the IC50 (Cytochrome P450 3A4)?
**A.** > 10000 nM

**Q.** What about the Activity (TMD8 [4]) of the same compound?
**A.** 34.1%

**Q.** What about the Occ [5] of the same compound?
**A.** 95%

**Q.** What about the Activity [6] of the same compound?
**A.** Non-Toxic

**Q.** And the half-life [7]?
**A.** 1.35 h

**Q.** And the bioavailability [8]?
**A.** 31.4%

**Q.** What about the Occ [9] of the same compound?
**A.** 95%

**Q.** What about the inhibition [10] of the same compound?
**A.** Active

**Q.** What about the Occ [11] of the same compound?
**A.** 91%

**Q.** What about the Activity [12] of the same compound?
**A.** Non-Toxic

**Q.** What about the IC50 (Ramos) of the same compound?
**A.** 2500 nM

**Q.** And the inhibition [13]?
**A.** > 80%

**Q.** And the IC50 (Cytochrome P450 1A2)?
**A.** > 10000 nM

**Q.** And the Cmax [14]?
**A.** 2380 nM

**Q.** And the “inhibition (INH)” value [15]?
**A.** Not Active

**Q.** And the IC50 (TMD8 [16])?
**A.** 25 nM

**Q.** What about the Activity (TMD8 [17]) of the same compound?
**A.** 7.94%

**Q.** What about the Activity (TMD8 [18]) of the same compound?
**A.** 68.4%

**Q.** What about the Activity [19] of the same compound?
**A.** Non-Toxic

**Q.** What about the IC50 (Raji) of the same compound?
**A.** 4300 nM

**Q.** And the Activity [20]?
**A.** Non-Toxic

**Q.** What about the IC50 (NAMALVA) of the same compound?
**A.** 4100 nM

**Q.** And the Occ [21]?
**A.** 58%

**Q.** And the Activity [22]?
**A.** Non-Toxic

**Q.** What about the concentration at 2 h [23] of the same compound?
**A.** 640 nM

**Q.** And the “inhibition (INH)” value [24]?
**A.** Not Active

**Q.** And the Activity (TMD8 [25])?
**A.** 93.84%

**Q.** What about the Activity (TMD8 [26]) of the same compound?
**A.** 84.36%

**Q.** And the IC50 (SU-DHL-2)?
**A.** 5500 nM

**Q.** And the IC50 (Pfeiffer)?
**A.** 2500 nM

**Q.** What about the IC50 [27] of the same compound?
**A.** 15.7 nM

**Q.** And the inhibition [28]?
**A.** > 80%

**Q.** And the inhibition in vivo at 15 mg/kg (TMD8 [29])?
**A.** 106%

**Q.** And the IC50 (Cytochrome P450 2D6)?
**A.** > 10000 nM
